Test results as given in patent US20230151025A1, “SUBSTITUTED THIAZOLOPYRIDINES, SALTS THEREOF AND THEIR USE AS HERBICIDALLY ACTIVE SUBSTANCES” (Bayer Aktiengesellschaft, priority 2020, published 2023).

Tests used:
Type in all cases: in vivo
[1] = test system: Polygonum convolvulus (POLCO); test: Herbicidal pre-emergence action (C), 320 g/ha; conditions: ca. 3 weeks
Summary of the method: (§1)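 Pre-emergence soil-surface spray: WP/EC formulation in water plus 0.5% additive, 600 l/ha, applied over freshly sown, soil-covered seeds in sandy loam. Greenhouse, optimum conditions, ~3 weeks. Visual % damage vs untreated (100% = dead).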

[2] = test system: Abutilon theophrasti (ABUTH); test: Herbicidal pre-emergence action (C), 320 g/ha; conditions: ca. 3 weeks
Summary of the method: as §1

[3] = test system: Matricaria inodora (MATIN); test: Herbicidal pre-emergence action (C), 320 g/ha; conditions: ca. 3 weeks
Summary of the method: as §1

[4] = test system: Poa annua (POAAN); test: Herbicidal post-emergence action (B), 1280 g/ha; conditions: rated visually after about 3 weeks vs untreated controls
Summary of the method: (§2)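 Percent activity is a visual score taken about 3 weeks after treatment, relative to untreated plants, where 100% means the plants died and 0% means no difference from controls. Plants were sprayed on green parts at the one-leaf stage with an aqueous suspension or emulsion containing 0.5% additive at 600 L/ha.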

[5] = test system: Veronica persica (VERPE); test: Herbicidal post-emergence action (B), 1280 g/ha
Summary of the method: as §2

[6] = test system: Echinochloa crus-galli (ECHCG); test: Herbicidal post-emergence action (B), 1280 g/ha; conditions: rated visually after about 3 weeks vs untreated controls
Summary of the method: as §2

[7] = test system: Kochia scoparia (KCHSC; Bassia scoparia); test: Herbicidal post-emergence action (B), 1280 g/ha
Summary of the method: as §2

[8] = test system: Digitaria sanguinalis (DIGSA); test: Herbicidal post-emergence action (B), 1280 g/ha; conditions: rated visually after about 3 weeks vs untreated controls
Summary of the method: as §2

[9] = test system: Setaria viridis (SETVI); test: Herbicidal post-emergence action (B), 1280 g/ha; conditions: rated visually after about 3 weeks vs untreated controls
Summary of the method: as §2

[10] = test system: Amaranthus retroflexus (AMARE); test: Herbicidal post-emergence action (B), 1280 g/ha; conditions: rated visually after about 3 weeks vs untreated controls
Summary of the method: as §2

[11] = test system: Abutilon theophrasti (ABUTH); test: Herbicidal post-emergence action (B), 1280 g/ha; conditions: rated visually after about 3 weeks vs untreated controls
Summary of the method: as §2

[12] = test system: Lolium rigidum (LOLRI); test: Herbicidal post-emergence action (B), 1280 g/ha; conditions: one-leaf stage, rated after about 3 weeks vs untreated controls, 100% activity = the plants have died, 0% = like control plants
Summary of the method: as §2

[13] = test system: Stellaria media (STEME); test: Herbicidal post-emergence action (B), 1280 g/ha
Summary of the method: as §2

[14] = test system: Alopecurus myosuroides (ALOMY); test: Herbicidal post-emergence action (B), 1280 g/ha; conditions: rated visually after about 3 weeks vs untreated controls
Summary of the method: as §2

[15] = test system: Avena fatua; test: Herbicidal pre-emergence action (C), 320 g/ha; conditions: ca. 3 weeks
Summary of the method: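 Weed and crop seeds sown in sandy loam; WP or EC formulations applied pre-emergence to the soil surface as aqueous suspension/emulsion with 0.5% additive at 600 l water/ha. Greenhouse-grown under optimum conditions; damage visually scored after ca. 3 weeks versus untreated controls (0% = as control, 100% = plants dead).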

[16] = test system: Viola tricolor (VIOTR); test: Herbicidal post-emergence action (D), 320 g/ha; conditions: ca. 3 weeks
Summary of the method: (§3)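 Post-emergence greenhouse test. Sandy loam; spray at single-leaf stage (2–3 wk after sowing); WP or EC in water + 0.5% additive, 600 l/ha. Visual rating ~3 wk post-spray, % effect vs untreated (0 = control, 100 = dead).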

[17] = test system: Setaria viridis (SETVI); test: Herbicidal post-emergence action (D), 320 g/ha; conditions: ca. 3 weeks
Summary of the method: as §3

[18] = test system: Abutilon theophrasti (ABUTH); test: Herbicidal post-emergence action (D), 320 g/ha; conditions: ca. 3 weeks
Summary of the method: as §3

[19] = test system: Viola tricolor (VIOTR); test: Herbicidal pre-emergence action (C), 320 g/ha; conditions: ca. 3 weeks
Summary of the method: as §1

[20] = test system: Stellaria media (STEME); test: Herbicidal pre-emergence action (C), 320 g/ha; conditions: visual grading after ca. 3 weeks vs untreated controls, 100% = plants have died off, 0% = as control plants
Summary of the method: as §1

[21] = test system: Matricaria inodora (MATIN); test: Herbicidal post-emergence action (B), 1280 g/ha; conditions: rated visually after about 3 weeks vs untreated controls
Summary of the method: as §2

[22] = test system: Lolium rigidum (LOLRI); test: Herbicidal post-emergence action (D), 320 g/ha; conditions: ca. 3 weeks
Summary of the method: as §3

[23] = test system: Stellaria media (STEME); test: Herbicidal post-emergence action (D), 320 g/ha; conditions: ca. 3 weeks
Summary of the method: as §3

[24] = test system: Digitaria sanguinalis (DIGSA); test: Herbicidal post-emergence action (D), 320 g/ha; conditions: ca. 3 weeks
Description: (§4) Seeds of mono- and dicotyledonous weed plants and crop plants were sown, in plastic or organic planting pots, in sandy loam, covered with soil and grown in a greenhouse under controlled growth conditions. 2 to 3 weeks after sowing, the test plants were sprayed in the single-leaf stage. The compounds according to the invention, formulated in form of wettable powders (WP) or as emulsifiable concentrates (EC), were sprayed onto the green plant parts as aqueous suspension or emulsion, with the addition of 0.5% of an additive, at an application rate of 600 l of water/ha (converted). The test plants were placed in the greenhouse for ca. 3 weeks under optimum growth conditions, and then the effect of the preparations was assessed visually in comparison with untreated controls (herbicidal effect in percent (%): 100% effect=plants have died off, 0% effect=as control plants).
(§5) Tables D1 to D13 below show the effects of selected compounds of the general formula (I) according to table 1 on various harmful plants and an application rate corresponding to 320 g/ha obtained by the experimental procedure mentioned above.

[25] = test system: Avena fatua; test: Herbicidal post-emergence action (D), 320 g/ha; conditions: ca. 3 weeks
Description: as §4, §5

Structure (SMILES)	herbicidal effect POLCO [1]	herbicidal effect ABUTH [2]	herbicidal effect MATIN [3]	herbicidal activity POAAN [4]	herbicidal effect VERPE [5]	herbicidal activity ECHCG [6]	herbicidal effect KCHSC [7]	herbicidal activity DIGSA [8]	herbicidal activity SETVI [9]	herbicidal activity AMARE [10]	herbicidal activity ABUTH [11]	LOLRI, activity rated visually (%) [12]	herbicidal effect STEME [13]	herbicidal activity ALOMY [14]	herbicidal effect AVEFA [15]	herbicidal effect SETVI [17]	herbicidal effect ABUTH [18]	herbicidal effect VIOTR [19]	herbicidal activity MATIN [21]	herbicidal effect LOLRI [22]	further results
Fc1ccccc1-c1nc2ncsc2cc1Cl [Example I-017]	90%	80%	90%	100%	90%	100%	90%	100%	100%	90%	90%	100%	100%	100%	90%	80%	80%				herbicidal effect VIOTR [16]: 90%
Fc1ccccc1-c1ccc2scnc2n1 [Example I-036, 5-(2-fluorophenyl)thiazolo[4,5-b]pyridine]	90%	90%	100%	100%		100%			100%	100%		100%	100%		100%	80%		100%	100%	80%	STEME, herbicidal effect in percent (%) [20]: 90%; herbicidal effect STEME [23]: 90%
Cc1cc2scnc2nc1-c1ccccc1 [Example I-041]	90%		90%	100%	100%	100%	100%	100%	100%	100%	100%	100%	100%	100%	90%	90%	90%		100%	80%	herbicidal effect DIGSA [24]: 90%
Cc1cc2scnc2nc1-c1ccccc1Cl [Example I-045]	80%	80%		100%	90%	100%	90%		100%	90%	90%	90%	100%	100%	90%	80%	90%	80%		80%	herbicidal effect DIGSA [24]: 90%
Cc1cc2scnc2nc1-c1ccsc1C [Example I-194]	90%		90%	100%	100%	100%	100%			100%	90%	100%	100%	100%		80%		90%	100%		herbicidal effect AVEFA [25]: 80%
